Non-standard residues stand in square brackets, D forms with d. Residues, ends and D or L forms follow the SMILES beside them. ξ: configuration not given here. *: point of attachment. Ac6c(4-Ph-cis-to-N) = N[C@]1(C(=O)O)CC[C@H](c2ccccc2)CC1; ξAtc(5-Br) = NC1(C(=O)O)CCc2c(Br)cccc2C1; Pentanoyl = CCCCC(=O)*
Legend:
[1] = molecular target: T1, Melanocyte-stimulating hormone receptor (Homo sapiens, UniProt Q01726); test: Agonist activity at human MC1R at 10 uM; type: functional
Target sequence in this assay (Q01726 whole entry, looked up): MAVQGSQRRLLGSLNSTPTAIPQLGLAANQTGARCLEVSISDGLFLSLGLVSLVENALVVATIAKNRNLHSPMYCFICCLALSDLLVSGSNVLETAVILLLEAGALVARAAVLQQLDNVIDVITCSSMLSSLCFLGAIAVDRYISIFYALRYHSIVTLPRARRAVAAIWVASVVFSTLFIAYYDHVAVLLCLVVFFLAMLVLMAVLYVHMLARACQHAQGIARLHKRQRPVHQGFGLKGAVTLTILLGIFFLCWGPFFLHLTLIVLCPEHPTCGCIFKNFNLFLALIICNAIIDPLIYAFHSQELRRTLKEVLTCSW

[2] = molecular target: T2, Melanocortin receptor 4 (Homo sapiens, UniProt P32245); test: Agonist activity at human MC4R at 100 nM; type: functional
[3] = molecular target: T2, Melanocortin receptor 4; test: Agonist activity in HEK293 cells transfected with human MC4R by cAMP accumulation; type: functional, cell-based
[4] = molecular target: T1, Melanocyte-stimulating hormone receptor; test: Agonist activity at human MC1R at 50 uM; type: functional
Target sequence in this assay (Q01726 whole entry, looked up): as above

[5] = molecular target: T1, Melanocyte-stimulating hormone receptor; test: Agonist activity in HEK293 cells transfected with human MC1R by cAMP accumulation; type: functional, cell-based
Target sequence in this assay (Q01726 whole entry): as the sequence (Q01726 whole entry, looked up) above

[6] = molecular target: T1, Melanocyte-stimulating hormone receptor; test: Agonist activity at human MC1R at 100 nM; type: functional
Target sequence in this assay (Q01726 whole entry, looked up): as above

T2 sequence (P32245 whole entry): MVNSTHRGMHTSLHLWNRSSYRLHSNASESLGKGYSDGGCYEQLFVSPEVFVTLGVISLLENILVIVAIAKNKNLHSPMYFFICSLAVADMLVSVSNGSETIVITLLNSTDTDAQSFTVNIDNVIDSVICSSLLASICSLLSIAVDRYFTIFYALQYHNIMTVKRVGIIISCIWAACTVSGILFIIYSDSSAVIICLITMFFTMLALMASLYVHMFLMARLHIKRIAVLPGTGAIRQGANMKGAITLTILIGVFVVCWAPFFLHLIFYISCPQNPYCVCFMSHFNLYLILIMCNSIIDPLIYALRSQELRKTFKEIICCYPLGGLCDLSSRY

CCCC(=O)N[C@]1(C(=O)N[C@H](Cc2ccccc2)C(=O)N[C@@H](CCCN=C(N)N)C(=O)NC(Cc2ccc3ccccc3c2)C(=O)NCc2cccc(C(N)=O)c2)CC[C@H](c2ccccc2)CC1 (some centres undefined)
Activity [1]: 25%
Activity [2]: > 30%

CCCC(=O)N[C@]1(C(=O)N[C@H](Cc2ccccc2)C(=O)N[C@@H](CCCN=C(N)N)C(=O)N[C@@H](Cc2c[nH]c3ccccc23)C(=O)NCc2ccc(C(N)=O)cc2)CC[C@H](c2ccccc2)CC1
EC50 [3]: 1 nM
Activity [1]: 50%

CCCC(=O)NC1(C(=O)N[C@H](Cc2ccccc2)C(=O)N[C@@H](CCCN=C(N)N)C(=O)NC(Cc2ccc3ccccc3c2)C(=O)Nc2ccccc2C(N)=O)CCc2c(Br)cccc2C1 (some centres undefined)
Activity [4]: 60%
Activity [2]: > 30%

CCCCC(=O)N[C@]1(C(=O)N[C@H](Cc2ccccc2)C(=O)N[C@@H](CCCN=C(N)N)C(=O)N[C@@H](Cc2ccc3ccccc3c2)C(=O)NCC(N)=O)CC[C@H](c2ccccc2)CC1
EC50 [3]: 50 nM

CCCCNC(=O)N[C@]1(C(=O)N[C@H](Cc2ccccc2)C(=O)N[C@@H](CCCN=C(N)N)C(=O)N[C@@H](Cc2c[nH]c3ccccc23)C(=O)NCc2cccc(C(N)=O)c2)CC[C@H](c2ccccc2)CC1
EC50 [3]: 2 nM
Activity [1]: 60%

CCCC(=O)N[C@]1(C(=O)N[C@H](Cc2ccccc2)C(=O)N[C@@H](CCCN=C(N)N)C(=O)NC(Cc2ccc3ccccc3c2)C(=O)Nc2ccccc2C(N)=O)CC[C@H](c2ccccc2)CC1 (some centres undefined)
Activity [1]: 50%
Activity [2]: > 30%

CCCC(=O)N[C@]1(C(=O)N[C@H](Cc2ccccc2)C(=O)N[C@@H](CCCN=C(N)N)C(=O)NC(Cc2ccc3ccccc3c2)C(=O)N[C@@H](C)C(N)=O)CC[C@H](c2ccccc2)CC1 (some centres undefined)
EC50 ([3]; hek293): 220 nM
Activity [1]: 25%
Activity [2]: > 30%

N=C(N)NCCC[C@H](NC(=O)[C@@H](Cc1ccccc1)NC(=O)[C@]1(NC(=O)Cc2ccccc2)CC[C@@H](c2ccccc2)CC1)C(=O)N[C@@H](Cc1c[nH]c2ccccc12)C(=O)Nc1ccccc1C(N)=O
EC50 [3]: 3 nM
Activity [1]: 75%

CCCC(=O)N[C@]1(C(=O)N[C@H](Cc2ccccc2)C(=O)N[C@@H](CCCN=C(N)N)C(=O)NC(Cc2ccc3ccccc3c2)C(=O)NCCC(N)=O)CC[C@H](c2ccccc2)CC1 (some centres undefined)
Activity [1]: 25%
Activity [2]: > 30%

CCCCC(=O)NC1(C(=O)N[C@H](Cc2ccccc2)C(=O)N[C@@H](CCCN=C(N)N)C(=O)N[C@@H](Cc2ccc3ccccc3c2)C(=O)NCC(N)=O)CCc2c(Br)cccc2C1 (some centres undefined)
EC50 [5]: 2900 nM
EC50 [3]: 200 nM

CCCC(=O)N[C@]1(C(=O)N[C@H](Cc2ccccc2)C(=O)N[C@@H](CCCN=C(N)N)C(=O)NC(Cc2ccc3ccccc3c2)C(=O)NCc2ccc(C(N)=O)cc2)CC[C@H](c2ccccc2)CC1 (some centres undefined)
Activity [4]: 15%
Activity [2]: > 30%

CCCC(=O)N[C@]1(C(=O)N[C@H](Cc2ccccc2)C(=O)N[C@@H](CCCN=C(N)N)C(=O)N[C@@H](Cc2c[nH]c3ccccc23)C(=O)NCCC(N)=O)CC[C@H](c2ccccc2)CC1
Activity [4]: 50%
EC50 [3]: 5 nM

CCCCNC(=O)N[C@]1(C(=O)N[C@H](Cc2ccccc2)C(=O)N[C@@H](CCCN=C(N)N)C(=O)N[C@@H](Cc2c[nH]c3ccccc23)C(=O)NCC(N)=O)CC[C@H](c2ccccc2)CC1
EC50 [3]: 2 nM
Activity [1]: 55%

CCCC(=O)NC1(C(=O)N[C@H](Cc2ccccc2)C(=O)N[C@@H](CCCN=C(N)N)C(=O)N[C@@H](Cc2c[nH]c3ccccc23)C(=O)Nc2ccccc2C(N)=O)CCc2c(Br)cccc2C1 (some centres undefined)
Activity [4]: 65%
EC50 [3]: 15 nM

CCCC(=O)NC1(C(=O)N[C@H](Cc2ccccc2)C(=O)N[C@@H](CCCN=C(N)N)C(=O)NC(Cc2ccc3ccccc3c2)C(=O)NCCC(N)=O)CCc2c(Br)cccc2C1 (some centres undefined)
Activity [6]: 40%
Activity [2]: 32%

CCCC(=O)N[C@]1(C(=O)N[C@H](Cc2ccccc2)C(=O)N[C@@H](CCCN=C(N)N)C(=O)N[C@@H](Cc2ccc3ccccc3c2)C(=O)NCc2ccc(C(N)=O)cc2)CC[C@H](c2ccccc2)CC1
EC50 [3]: 85 nM

CCCC(=O)NC1(C(=O)N[C@H](Cc2ccccc2)C(=O)N[C@@H](CCCN=C(N)N)C(=O)NC(Cc2ccc3ccccc3c2)C(=O)NCC(N)=O)CCc2c(Br)cccc2C1 (some centres undefined)
Activity [6]: 26%
Activity [2]: 30%

N=C(N)NCCC[C@H](NC(=O)[C@@H](Cc1ccccc1)NC(=O)[C@]1(NC(=O)Cc2ccccc2)CC[C@@H](c2ccccc2)CC1)C(=O)N[C@@H](Cc1c[nH]c2ccccc12)C(=O)NCc1ccc(C(N)=O)cc1
EC50 [3]: 1 nM
Activity [1]: 70%

CCCC(=O)N[C@]1(C(=O)N[C@H](Cc2ccccc2)C(=O)N[C@@H](CCCN=C(N)N)C(=O)N[C@@H](Cc2c[nH]c3ccccc23)C(=O)NCc2cccc(C(N)=O)c2)CC[C@H](c2ccccc2)CC1
Activity [4]: 50%
EC50 [3]: 2 nM

CCCC(=O)N[C@]1(C(=O)N[C@H](Cc2ccccc2)C(=O)N[C@@H](CCCN=C(N)N)C(=O)N[C@@H](Cc2c[nH]c3ccccc23)C(=O)Nc2ccccc2C(N)=O)CC[C@H](c2ccccc2)CC1
EC50 [3]: 2 nM
Activity [1]: 60%

CCCCNC(=O)N[C@]1(C(=O)N[C@H](Cc2ccccc2)C(=O)N[C@@H](CCCN=C(N)N)C(=O)N[C@@H](Cc2c[nH]c3ccccc23)C(=O)N[C@@H](C)C(N)=O)CC[C@H](c2ccccc2)CC1
Activity [4]: 25%
EC50 [3]: 2 nM

CCCC(=O)N[C@]1(C(=O)N[C@H](Cc2ccccc2)C(=O)N[C@@H](CCCN=C(N)N)C(=O)N[C@@H](Cc2ccc3ccccc3c2)C(=O)NCc2cccc(C(N)=O)c2)CC[C@H](c2ccccc2)CC1
EC50 [3]: 110 nM

CCCCNC(=O)N[C@]1(C(=O)N[C@H](Cc2ccccc2)C(=O)N[C@@H](CCCN=C(N)N)C(=O)N[C@@H](Cc2c[nH]c3ccccc23)C(=O)NCCC(N)=O)CC[C@H](c2ccccc2)CC1
Activity [4]: 50%
EC50 [3]: 2 nM

CCCC(=O)N[C@]1(C(=O)N[C@H](Cc2ccccc2)C(=O)N[C@@H](CCCN=C(N)N)C(=O)N[C@@H](Cc2ccc3ccccc3c2)C(=O)NCCC(N)=O)CC[C@H](c2ccccc2)CC1
EC50 [3]: 90 nM

NC(=O)CNC(=O)[C@H](Cc1c[nH]c2ccccc12)NC(=O)[C@H](CCCN=C(N)N)NC(=O)[C@@H](Cc1ccccc1)NC(=O)[C@]1(NC(=O)Cc2ccccc2)CC[C@@H](c2ccccc2)CC1
EC50 [3]: 2 nM
Activity [1]: 30%

CCCC(=O)NC1(C(=O)N[C@H](Cc2ccccc2)C(=O)N[C@@H](CCCN=C(N)N)C(=O)N[C@@H](Cc2ccc3ccccc3c2)C(=O)Nc2ccccc2C(N)=O)CCc2c(Br)cccc2C1 (some centres undefined)
EC50 [3]: 72 nM

CCCCNC(=O)N[C@]1(C(=O)N[C@H](Cc2ccccc2)C(=O)N[C@@H](CCCN=C(N)N)C(=O)N[C@@H](Cc2c[nH]c3ccccc23)C(=O)Nc2ccccc2C(N)=O)CC[C@H](c2ccccc2)CC1
EC50 [3]: 2 nM
Activity [1]: 75%

CCCCNC(=O)NC1(C(=O)N[C@H](Cc2ccccc2)C(=O)N[C@@H](CCCN=C(N)N)C(=O)N[C@@H](Cc2c[nH]c3ccccc23)C(=O)Nc2ccccc2C(N)=O)CCc2c(Br)cccc2C1 (some centres undefined)
EC50 [3]: 15 nM
Activity [1]: 50%

NC(=O)CCNC(=O)[C@H](Cc1c[nH]c2ccccc12)NC(=O)[C@H](CCCN=C(N)N)NC(=O)[C@@H](Cc1ccccc1)NC(=O)[C@]1(NC(=O)Cc2ccccc2)CC[C@@H](c2ccccc2)CC1
EC50 [3]: 5 nM
Activity [1]: 45%

CCCC(=O)N[C@]1(C(=O)N[C@H](Cc2ccccc2)C(=O)N[C@@H](CCCN=C(N)N)C(=O)N[C@@H](Cc2c[nH]c3ccccc23)C(=O)N[C@@H](C)C(N)=O)CC[C@H](c2ccccc2)CC1
Activity [4]: 25%
EC50 [3]: 3 nM

N=C(N)NCCC[C@H](NC(=O)[C@@H](Cc1ccccc1)NC(=O)[C@]1(NC(=O)Cc2ccccc2)CC[C@@H](c2ccccc2)CC1)C(=O)N[C@@H](Cc1c[nH]c2ccccc12)C(=O)NCc1cccc(C(N)=O)c1
EC50 [3]: 2 nM
Activity [1]: 60%

CCCC(=O)N[C@]1(C(=O)N[C@H](Cc2ccccc2)C(=O)N[C@@H](CCCN=C(N)N)C(=O)N[C@@H](Cc2ccc3ccccc3c2)C(=O)Nc2ccccc2C(N)=O)CC[C@H](c2ccccc2)CC1
EC50 [3]: 39 nM

N=C(N)NCCC[C@H](NC(=O)[C@@H](Cc1ccccc1)NC(=O)C1(NC(=O)Cc2ccccc2)CCc2c(Br)cccc2C1)C(=O)N[C@@H](Cc1c[nH]c2ccccc12)C(=O)Nc1ccccc1C(N)=O (some centres undefined)
EC50 [3]: 11 nM
Activity [1]: 50%

CCCCC(=O)NC1(C(=O)N[C@H](Cc2ccccc2)C(=O)N[C@@H](CCCN=C(N)N)C(=O)N[C@@H](Cc2c[nH]c3ccccc23)C(=O)NCC(N)=O)CCc2c(Br)cccc2C1 (some centres undefined) (Pentanoyl-[ξAtc(5-Br)][dF]RWG-NH2)
Activity [4]: 50%

C[C@H](NC(=O)[C@H](Cc1c[nH]c2ccccc12)NC(=O)[C@H](CCCN=C(N)N)NC(=O)[C@@H](Cc1ccccc1)NC(=O)[C@]1(NC(=O)Cc2ccccc2)CC[C@@H](c2ccccc2)CC1)C(N)=O
EC50 [3]: 3 nM
Activity [1]: 30%

CCCC(=O)N[C@]1(C(=O)N[C@H](Cc2ccccc2)C(=O)N[C@@H](CCCN=C(N)N)C(=O)N[C@@H](Cc2ccc3ccccc3c2)C(=O)NCC(N)=O)CC[C@H](c2ccccc2)CC1
EC50 [3]: 44 nM
Activity [1]: 25%
Activity [2]: > 30%

CCCCC(=O)N[C@]1(C(=O)N[C@H](Cc2ccccc2)C(=O)N[C@@H](CCCN=C(N)N)C(=O)N[C@@H](Cc2c[nH]c3ccccc23)C(=O)NCC(N)=O)CC[C@H](c2ccccc2)CC1 (Pentanoyl-[Ac6c(4-Ph-cis-to-N)][dF]RWG-NH2)
Activity [4]: 25%

CCCCC(=O)N[C@]1(C(=O)N[C@H](Cc2ccccc2)C(=O)N[C@@H](CCCN=C(N)N)C(=O)NC(Cc2ccc3ccccc3c2)C(=O)NCC(N)=O)CC[C@H](c2ccccc2)CC1 (some centres undefined)
Activity [4]: 60%

Source: ChEMBL document CHEMBL1141965, “Preparation of human Melanocortin-4 receptor agonist libraries: linear peptides X-Y-DPhe7-Arg8-Trp(or 2-Nal)9-Z-NH2” (Bioorg Med Chem Lett, 2005)
